Legend:
[1] = Apparent solubility by UV-VIS after 100 nm filtration; format: physicochemical; details: ultrapurified water, thermodynamic from solid, comparative formulation study, read-out: apparent solubility (comparative measurements, FIG. 15)
Description: (§1) The solid complex Ivacaftor formulations were dispersed in ultrapurified water in 1-10 mg/mL Ivacaftor equivalent concentration range. The resulting solutions were filtered by 100 nm disposable syringe filter. The Ivacaftor content in the filtrate was measured by UV-Vis spectrophotometry and the apparent solubility was calculated. The filtrate may contain Ivacaftor complex particles which could not be filtrated out using 100 nm pore size filter.
as §1, with “1” for “1-10”

[2] = system: CYP3A; details: in-vitro and clinical studies, humans; cited from earlier work
[3] = cited from earlier work
[4] = cited from earlier work; for share of the total dose eliminated as metabolite: oral administration of Ivacaftor
[5] = target: CFTR protein (Homo sapiens, UniProt P13569); details: fraction of the potency of Ivacaftor; cited from earlier work
Chain of CFTR protein (P13569 whole entry): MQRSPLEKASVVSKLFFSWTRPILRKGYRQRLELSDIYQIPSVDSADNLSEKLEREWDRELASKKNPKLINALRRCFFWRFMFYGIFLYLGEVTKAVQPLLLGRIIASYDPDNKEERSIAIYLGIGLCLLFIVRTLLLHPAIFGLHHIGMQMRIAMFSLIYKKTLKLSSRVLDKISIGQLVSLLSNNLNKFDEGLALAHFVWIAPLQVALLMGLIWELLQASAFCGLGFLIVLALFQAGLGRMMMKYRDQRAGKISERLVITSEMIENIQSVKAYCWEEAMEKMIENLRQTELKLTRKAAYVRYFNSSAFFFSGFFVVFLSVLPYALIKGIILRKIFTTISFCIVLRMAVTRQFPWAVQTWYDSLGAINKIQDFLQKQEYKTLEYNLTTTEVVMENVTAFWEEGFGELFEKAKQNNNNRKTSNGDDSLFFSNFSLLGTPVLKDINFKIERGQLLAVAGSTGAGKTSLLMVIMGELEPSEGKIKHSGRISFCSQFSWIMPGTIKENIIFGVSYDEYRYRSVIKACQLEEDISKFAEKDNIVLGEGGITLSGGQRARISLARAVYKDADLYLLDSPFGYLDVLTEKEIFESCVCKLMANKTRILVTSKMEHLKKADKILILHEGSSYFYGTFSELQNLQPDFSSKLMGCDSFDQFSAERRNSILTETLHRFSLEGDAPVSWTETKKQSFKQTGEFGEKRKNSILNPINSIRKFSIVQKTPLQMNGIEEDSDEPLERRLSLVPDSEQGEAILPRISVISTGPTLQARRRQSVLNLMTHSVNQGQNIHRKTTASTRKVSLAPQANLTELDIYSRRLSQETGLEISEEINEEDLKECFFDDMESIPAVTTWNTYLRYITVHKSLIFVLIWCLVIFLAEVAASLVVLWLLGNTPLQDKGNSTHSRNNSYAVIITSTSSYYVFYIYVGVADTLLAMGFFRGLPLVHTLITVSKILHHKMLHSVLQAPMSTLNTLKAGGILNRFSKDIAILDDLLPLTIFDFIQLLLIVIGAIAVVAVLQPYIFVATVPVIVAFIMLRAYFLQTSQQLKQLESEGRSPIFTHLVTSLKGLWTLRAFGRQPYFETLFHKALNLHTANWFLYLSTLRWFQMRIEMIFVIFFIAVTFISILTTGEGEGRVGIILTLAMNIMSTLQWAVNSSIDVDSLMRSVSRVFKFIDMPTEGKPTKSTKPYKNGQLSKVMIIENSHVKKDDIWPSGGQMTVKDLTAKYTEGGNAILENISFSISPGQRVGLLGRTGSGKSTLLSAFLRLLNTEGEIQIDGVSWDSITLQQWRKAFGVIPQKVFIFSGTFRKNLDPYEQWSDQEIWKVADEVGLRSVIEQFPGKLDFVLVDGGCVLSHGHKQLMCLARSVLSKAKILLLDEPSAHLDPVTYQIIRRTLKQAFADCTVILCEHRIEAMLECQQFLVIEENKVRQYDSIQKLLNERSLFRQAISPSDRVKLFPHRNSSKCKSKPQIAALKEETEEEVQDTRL

CC(C)(C)c1cc(C(C)(C)C)c(NC(=O)c2c[nH]c3ccccc3c2=O)cc1O [crystalline Ivacaftor, N-(2,4-di-tert-butyl-5-hydroxyphenyl)-1,4-dihydro-4-oxoquinoline-3-carboxamide]
solubility [1]: < 100 µg/mL

CC(C)(C)c1cc(C(C)(C)C)c(NC(=O)c2c[nH]c3ccccc3c2=O)cc1O [Ivacaftor, N-(2,4-di-tert-butyl-5-hydroxyphenyl)-1,4-dihydro-4-oxoquinoline-3-carboxamide]
metabolism [2]: primarily metabolized by CYP3A
solubility in water [3]: < 0.05 microgram/mL
mean apparent clearance (CL/F), healthy subjects versus patients with CF ([4]; human, in vivo): similar
eliminated in the feces after metabolic conversion ([4]; oral administration): 87.8%
urinary excretion as unchanged parent ([4]; oral administration): negligible
tmax (peak plasma concentrations) ([4]; single 150 mg oral dose, healthy volunteers, fed state): approximately 4 hours
mean apparent volume of distribution (Vz/F), healthy subjects versus patients with CF ([4]; single dose of 275 mg of KALYDECO, fed state): similar
apparent terminal half-life ([4]; single dose): approximately 12 hours

CC(C)(C)c1cc(C(C)(C)CO)c(O)cc1NC(=O)c1c[nH]c2ccccc2c1=O [M1]
potency relative to Ivacaftor [5]: approximately one-sixth
share of the total dose eliminated as metabolite [4]: 22%

CC(C)(C)c1cc(C(C)(C)C(=O)O)c(O)cc1NC(=O)c1c[nH]c2ccccc2c1=O [M6]
potency relative to Ivacaftor [5]: less than one-fiftieth
share of the total dose eliminated as metabolite [4]: 43%

From patent US10675277B2, “Complexes of ivacaftor and its salts and derivatives, process for the preparation thereof and pharmaceutical compositions containing them” (NanGenex Nanotechnology Incorporated, priority 2016, dated 2020)
